Values quoted from earlier work in US5807857A, “Piperazine, piperidine and tetrahydropyridine derivative of indol-3-alkyl as 5-HT1D-α agonists” (Merck Sharp & Dohme Ltd., priority 1994, dated 1998).

Columns and labels:
[1] = administration to humans at therapeutic doses
[2] = test system: human 5-HT1Dα and 5-HT1Dβ receptor subtypes; settings: cf. WO-A-91/17174, Table 1

For `CNS(=O)(=O)Cc1ccc2[nH]cc(CCN(C)C)c2c1` [sumatriptan], the “adverse cardiovascular events in humans” value [1] is given as “certain adverse cardiovascular events” and the “discrimination between the human 5-HT1Dα and 5-HT1Dβ receptor subtypes” value [2] is given as “barely discriminates”.
